Data taken from patent US10806693B2, “Method for increasing lipolysis using a composition comprising bioactive Nelumbo nucifera (lotus) extract” (ISP Investments LLC, priority 2016, dated 2020).

Test: Lipolysis: glycerol release from differentiated 3T3-L1 adipocytes
Type: cell-based
Conditions: 2 mM, twice a day for 48 hours
Experimental: This study aims to evaluate in vitro effect of Nelumbo nucifera (Lotus) Extract on lipolysis by evaluating glycerol release on preadipocytes. Lipolysis is the hydrolysis of triglycerides into glycerol and fatty acids. The amount of glycerol release will be proportional to both the amount of stored triglyceride and the degree of lipolysis 3T3-L1 pre-adipocytes (ATCC) were cultured in DMEM 4.5 g/L glucose (Lonza) supplemented with 10% of FBS (Lonza), 2 mM of L-Glutamine (Lonza) and 100 μg/ml of Primocin (InvivoGen). 2 days after the cells' confluence, differentiation into adipocytes was induced by adding 0.5 mM IBMX, 1 μM dexamethasone and 10 μg/ml insulin (Sigma) in the culture medium for 3 days. Afterwards, IBMX and dexamethasone were removed and only the insulin was maintained for 3 to 4 days; then, the insulin was also removed, and the cells were maintained in culture medium for another 3 days. After differentiation, cells were treated with Nelumbo nucifera (Lotus) Extract of example 1 diluted at 1/10.000 eme in culture medium, further noted as Lotus 0.01% (volume/volume) or with 2 mM caffeine positive control, twice a day for 48 hours. Then glycerol release was measured using Adipolysis Assay Kit (Cayman Chemical), according to the manufacturer's instructions.

## Cn1c(=O)c2c(ncn2C)n(C)c1=O [Caffeine, caffeine]
  Glycerol release (% of untreated): 131 % of untreated
